The numbers were not newly measured in patent US7217681B2, “Pesticidal composition and method for fungal control” (Syngenta Crop Protection, Inc., priority 2004, dated 2007), which cites them from elsewhere.

The data set relates to fungi. The following applies: reported by Burg et al., Ivermectin and Abamectin, 1989.

Regarding abamectin, the “anti-bacterial or antifungal activity” value is “no anti-bacterial or antifungal activity”.
